Source: patent US11596639B2, “Substituted indole Mcl-1 inhibitors” (Vanderbilt University, priority 2016, dated 2023)
Like-named read-outs stand apart in the source and are kept apart here.

Legend:
[1] = target: Mcl-1 (Homo sapiens (Human), UniProt Q07820); assay: Fluorescence polarization anisotropy (FPA) competition assay, FITC-Bak or FITC-Bim BH3 peptide; assay type: binding; conditions: read-out: Ki for Inhibition of Mcl-1 by FPA assay
[2] = tested on: H929 human cancer cell lines; assay: Cellular viability / proliferation (Cell TiterGlo, 72 h); assay type: cell-based
Procedure, shortened: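 H929 cells plated at 1,000/well in 10% FBS medium received a 2-fold serial compound dilution (top 50 μM, DMSO <1%) 24 h later. After 72 h, viability was read by CellTiter-Glo luminescence. IC50 came from a four-parameter fit.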

[3] = Homo sapiens, NCI-H929, 72 h, read-out: GI50 on cellular proliferation of H929 human cancer cell lines, H929 cells, 72 h, Cell TiterGlo, 10% FBS
[4] = H929 cells, 72 h, Cell TiterGlo, 10% FBS, read-out: GI50 on cellular proliferation of H929 human cancer cell lines

Sequence of Mcl-1 (Q07820 172-327): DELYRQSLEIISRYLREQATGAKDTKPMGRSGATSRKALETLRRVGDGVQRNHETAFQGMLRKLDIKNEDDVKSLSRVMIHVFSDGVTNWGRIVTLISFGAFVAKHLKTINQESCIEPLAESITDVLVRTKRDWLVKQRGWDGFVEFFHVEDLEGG

Structure (SMILES) | Ki [1] | GI50 ([2]; read-out: GI50 on cellular proliferation of H929 human cancer cell lines, H929 cells, 72 h, Cell TiterGlo, 10% FBS) | GI50 [2, 3] | GI50 [2, 4]
Cc1cc(OCCCc2c3n(c4c(-c5c(C)nn(C)c5C)c(Cl)ccc24)[C@H](C)CN(c2cccc4cc(C(=O)O)n(Cc5ccccn5)c24)C3=O)cc(C)c1Cl [Example 249, 7-[(4R)-7-chloro-10-[3-(4-chloro-3,5-dimethyl-phenoxy)propyl]-4-methyl-1-oxo-6-(1,3,5-trimethylpyrazol-4-yl)-3,4-dihydropyrazino[1,2-a]indol-2-yl]-1-(2-pyridylmethyl)indole-2-carboxylic acid] | < 1 nM | 490 nM |  | 
Cc1cc(OCCCc2c3n(c4c(-c5c(C)nn(C)c5C)c(Cl)ccc24)CCCN(c2cc(C(=O)O)c4nnn(C)c4c2)C3=O)cc(C)c1Cl [Example 4, 6-[8-Chloro-11-[3-(4-chloro-3,5-dimethyl-phenoxy)propyl]-1-oxo-7-(1,3,5-trimethylpyrazol-4-yl)-4,5-dihydro-3H-[1,4]diazepino[1,2-a]indol-2-yl]-1-methyl-benzotriazole-4-carboxylic acid] | 3.3 nM |  | 8700 nM | 
Cc1cc(OCCCc2c3n(c4c(-c5c(C)nn(C)c5C)c(Cl)ccc24)[C@H](C)CN(c2ccc(OCc4ccccc4)c4c2cc(C(=O)O)n4C)C3=O)cc(C)c1Cl [Example 327, (P, R)-7-(Benzyloxy)-4-(7-chloro-10-(3-(4-chloro-3,5-dimethylphenoxy)propyl)-4-methyl-1-oxo-6-(1,3,5-trimethyl-1H-pyrazol-4-yl)-3,4-dihydropyrazino[1,2-a]indol-2(1H)-yl)-1-methyl-1H-indole-2-carboxylic acid] | 1.6 nM |  |  | 3600 nM
Cc1cc(N2C[C@@H](C)n3c(c(CCCOc4cc(C)c(Cl)c(C)c4)c4ccc(Cl)c(-c5c(C)nn(C)c5C)c43)C2=O)c2c(c1)cc(C(N)=O)n2C [Example 332, (R)-7-(7-Chloro-10-(3-(4-chloro-3,5-dimethylphenoxy)propyl)-4-methyl-1-oxo-6-(1,3,5-trimethyl-1H-pyrazol-4-yl)-3,4-dihydropyrazino[1,2-a]indol-2(1H)-yl)-1,5-dimethyl-1H-indole-2-carboxamide] | 2.8 nM |  | 670 nM | 
CCn1cc(N2C[C@@H](C)n3c(c(CCCOc4cc(C)c(Cl)c(C)c4)c4ccc(Cl)c(-c5c(C)nn(C)c5C)c43)C2=O)c2cc(C(=O)O)ccc21 [Example 164, (R)-3-(7-Chloro-10-(3-(4-chloro-3,5-dimethylphenoxy)propyl)-4-methyl-1-oxo-6-(1,3,5-trimethyl-1H-pyrazol-4-yl)-3,4-dihydropyrazino[1,2-a]indol-2(1H)-yl)-1-ethyl-1H-indole-5-carboxylic acid] | 1.7 nM |  | 920 nM | 
CC(=O)N1CCN(Cc2nc(C)c(-c3c(Cl)ccc4c(CCCOc5cc(C)c(Cl)c(C)c5)c5n(c34)[C@H](C)CN(c3cn(C)c4ccc(C(=O)O)cc34)C5=O)c(C)n2)CC1 [Example 433, (R)-3-(6-(2-((4-Acetylpiperazin-1-yl)methyl)-4,6-dimethylpyrimidin-5-yl)-7-chloro-10-(3-(4-chloro-3,5-dimethylphenoxy)propyl)-4-methyl-1-oxo-3,4-dihydropyrazino[1,2-a]indol-2(1H)-yl)-1-methyl-1H-indole-5-carboxylic acid] | 1.7 nM |  | 440 nM | 
COc1cc(C(=O)O)cc(N2CCCn3c(c(CCCOc4cc(C)c(Cl)c(C)c4)c4ccc(Cl)c(-c5c(C)nn(C)c5C)c43)C2=O)c1OCCO [Example 62, 3-[8-chloro-11-[3-(4-chloro-3,5-dimethyl-phenoxy)propyl]-1-oxo-7-(1,3,5-trimethylpyrazol-4-yl)-4,5-dihydro-3H-[1,4]diazepino[1,2-a]indol-2-yl]-4-(2-hydroxyethoxy)-5-methoxy-benzoic acid] | < 1 nM |  | 11000 nM | 
Cc1cc(OCCCc2c3n(c4c(-c5c(C)nn(C)c5C)c(Cl)ccc24)[C@H](C)CN(c2cccc4c2cc(C#N)n4C)C3=O)cc(C)c1Cl [Example 301, 4-[(4R)-7-chloro-10-[3-(4-chloro-3,5-dimethyl-phenoxy)propyl]-4-methyl-1-oxo-6-(1,3,5-trimethylpyrazol-4-yl)-3,4-dihydropyrazino[1,2-a]indol-2-yl]-1-methyl-indole-2-carbonitrile] | 2.8 nM |  | 8300 nM | 
Cc1cc(OCCCc2c3n(c4c(-c5c(C)n[nH]c5C)c(Cl)ccc24)[C@H](C)CN(c2cc(C(=O)O)c4ccn(C)c4c2)C3=O)cc(C)c1Cl [Example 70, (R)-6-(7-chloro-10-(3-(4-chloro-3,5-dimethylphenoxy)propyl)-6-(3,5-dimethyl-1H-pyrazol-4-yl)-4-methyl-1-oxo-3,4-dihydropyrazino[1,2-a]indol-2(1H)-yl)-1-methyl-1H-indole-4-carboxylic acid] | < 1 nM |  | 2400 nM | 
Cc1cc(OCCCc2c3n(c4c(-c5c(C)nn(C)c5C)c(Cl)ccc24)[C@H](C)CN(c2cn(CCC4CCOCC4)c4ccc(C(=O)O)cc24)C3=O)cc(C)c1Cl [Example 240, (R)-3-(7-Chloro-10-(3-(4-chloro-3,5-dimethylphenoxy)propyl)-4-methyl-1-oxo-6-(1,3,5-trimethyl-1H-pyrazol-4-yl)-3,4-dihydropyrazino[1,2-a]indol-2(1H)-yl)-1-(2-(tetrahydro-2H-pyran-4-yl)ethyl)-1H-indole-5-carboxylic acid] | < 1 nM |  | 1900 nM | 
Cc1cc(OCCCc2c3n(c4c(-c5c(C)nn(C)c5C)c(Cl)ccc24)[C@H](C)CN(c2cn(C)c4cc(C(=O)O)ccc24)C3=O)cc(C)c1Cl [Example 88, (R)-3-(7-Chloro-10-(3-(4-chloro-3,5-dimethylphenoxy)propyl)-4-methyl-1-oxo-6-(1,3,5-trimethyl-1H-pyrazol-4-yl)-3,4-dihydropyrazino[1,2-a]indol-2(1H)-yl)-1-methyl-1H-indole-6-carboxylic acid] | < 1 nM |  | 290 nM | 
Cc1cc(OCCCc2c3n(c4c(-c5c(C)nc(CN6CCC(O)C6)nc5C)c(Cl)ccc24)[C@H](C)CN(c2cn(C)c4ccc(C(=O)O)cc24)C3=O)cc(C)c1Cl (stereo partly drawn) [Example 397, 3-((4R)-7-Chloro-10-(3-(4-chloro-3,5-dimethylphenoxy)propyl)-6-(2-((3-hydroxypyrrolidin-1-yl)methyl)-4,6-dimethylpyrimidin-5-yl)-4-methyl-1-oxo-3,4-dihydropyrazino[1,2-a]indol-2(1H)-yl)-1-methyl-1H-indole-5-carboxylic acid] | 1.2 nM |  | 340 nM | 
Cc1cc(OCCCc2c3n(c4c(-c5c(C)nn(C)c5C)c(Cl)ccc24)[C@H](C)CN(c2cn(C)c4ccc(-c5cn6c(n5)CCC6)cc24)C3=O)cc(C)c1Cl [Example 419, (R)-7-Chloro-10-(3-(4-chloro-3,5-dimethylphenoxy)propyl)-2-(5-(6,7-dihydro-5H-pyrrolo[1,2-a]imidazol-2-yl)-1-methyl-1H-indol-3-yl)-4-methyl-6-(1,3,5-trimethyl-1H-pyrazol-4-yl)-3,4-dihydropyrazino[1,2-a]indol-1(2H)-one] | 2.3 nM |  |  | 1100 nM
Cc1ccc(Cn2c(C(=O)O)cc3cccc(N4C[C@@H](C)n5c(c(CCCOc6cc(C)c(Cl)c(C)c6)c6ccc(Cl)c(-c7c(C)nn(C)c7C)c65)C4=O)c32)nc1 [Example 363, (R)-7-(7-Chloro-10-(3-(4-chloro-3,5-dimethylphenoxy)propyl)-4-methyl-1-oxo-6-(1,3,5-trimethyl-1H-pyrazol-4-yl)-3,4-dihydropyrazino[1,2-a]indol-2(1H)-yl)-1-((5-methylpyridin-2-yl)methyl)-1H-indole-2-carboxylic acid] | 1.6 nM |  | 1400 nM | 
Cc1cc(OCCCc2c3n(c4c(-c5c(C)nn(C)c5C)c(Cl)ccc24)CCCN(c2cc(C(=O)O)c4ncn(C)c4c2)C3=O)cc(C)c1Cl [Example 7, 6-[8-chloro-11-[3-(4-chloro-3,5-dimethyl-phenoxy)propyl]-1-oxo-7-(1,3,5-trimethylpyrazol-4-yl)-4,5-dihydro-3H-[1,4]diazepino[1,2-a]indol-2-yl]-1-methyl-benzimidazole-4-carboxylic acid] | 2.2 nM |  | 13000 nM | 
COc1ccc(Cn2c(C(=O)O)cc3cccc(N4C[C@@H](C)n5c(c(CCCOc6cc(C)c(Cl)c(C)c6)c6ccc(Cl)c(-c7c(C)nn(C)c7C)c65)C4=O)c32)nc1 [Example 382, (R)-7-(7-Chloro-10-(3-(4-chloro-3,5-dimethylphenoxy)propyl)-4-methyl-1-oxo-6-(1,3,5-trimethyl-1H-pyrazol-4-yl)-3,4-dihydropyrazino[1,2-a]indol-2(1H)-yl)-1-((5-methoxypyridin-2-yl)methyl)-1H-indole-2-carboxylic acid] | 1.2 nM |  | 750 nM | 
Cc1cc(OCCCc2c3n(c4c(-c5c(C)nn(C)c5C)c(Cl)ccc24)[C@H](C)CN(c2cn(C)c4c(C#N)cccc24)C3=O)cc(C)c1Cl [Example 209, (R)-3-(7-Chloro-10-(3-(4-chloro-3,5-dimethylphenoxy)propyl)-4-methyl-1-oxo-6-(1,3,5-trimethyl-1H-pyrazol-4-yl)-3,4-dihydropyrazino[1,2-a]indol-2(1H)-yl)-1-methyl-1H-indole-7-carbonitrile] | 1.2 nM |  | 3500 nM | 
Cc1cc(OCCCc2c3n(c4c(-c5c(C)nn(C)c5C)c(Cl)ccc24)[C@H](C)CN(c2cn(COCC[Si](C)(C)C)c4ccc(C(=O)O)cc24)C3=O)cc(C)c1Cl [Example 231, (R)-3-(7-Chloro-10-(3-(4-chloro-3,5-dimethylphenoxy)propyl)-4-methyl-1-oxo-6-(1,3,5-trimethyl-1H-pyrazol-4-yl)-3,4-dihydropyrazino[1,2-a]indol-2(1H)-yl)-1-((2-(trimethylsilyl)ethoxy)methyl)-1H-indole-5-carboxylic acid] | 1.2 nM |  | 2700 nM | 
